Data on 18 compounds can be found in ChEMBL document CHEMBL1127662, “3-Alkoxybenzo[b]thiophene-2-carboxamides as inhibitors of neutrophil-endothelial cell adhesion” (J Med Chem, 1994).

The subject of assay [1] is HUVEC. Nature of the assay: (§1) Tested for adhesion of neutrophils to human umbilical vein endothelial cell at the dose of 100 uM. The class given is functional.
Assay [2] relates to HUVEC. The assay is described as §1. The class given is functional, cell-based.

The structures appear in SMILES notation. Bounds are passed on as bounds.

What is called inhibition is how much of the control response was suppressed. Low readings indicate a weak effect, high ones a strong effect. Take `CC(C)Oc1c(C(N)=O)sc2ccccc12`: the inhibition at 100 µM with HUVEC [1] amounted to 60%. Still for that read-out and setting: with `COc1ccc2sc(C(N)=O)c(OC(C)(C)C)c2c1` the figure was 97%. In the assay on HUVEC [1], `Cc1ccc2sc(C(N)=O)c(OC(C)C)c2c1` showed an inhibition at 100 µM of 61%. In the assay with HUVEC [1], `CC(C)Oc1c(C(N)=O)sc2ccc(OCc3ccccc3)cc12` yielded an inhibition at 100 µM of under 4%.

A word on the Inhibition: it is the percentage by which the read-out fell short of the control. Regarding `COc1ccc2c(c1)C(OC(C)C)=C(C(N)=O)S2(=O)=O`, the Inhibition in the assay with HUVEC [2] was under 4%. As for `CCNC(=O)c1sc2ccc(OC)cc2c1OC(C)C`, the inhibition at 100 µM with HUVEC [1] worked out at 64%.

`COc1ccc2sc(C(N)=O)c(OC)c2c1` showed an inhibition at 100 µM with HUVEC [1] of 60%. The IC50 is the concentration needed to halve the response being measured. High values mean a need for much substance, low ones inhibition by little substance. As to `COc1ccc2c(c1)c(OC(C)C)c(C(N)=O)[s+]2[O-]` (stereo not drawn), in the assay on HUVEC [2], 8.7 µM corresponded to half-maximal inhibition (IC50). This lies in the single-digit micromolar range. `COc1cccc2c(OC(C)C)c(C(N)=O)sc12` displayed an inhibition at 100 µM with HUVEC [1] of 35%. For `CC(C)Oc1c(C(N)=O)sc2ccc([N+](=O)[O-])cc12`, the Inhibition with HUVEC [2] came out at 40%. Consider `CC(C)Oc1c(C(N)=O)sc2ccc(O)cc12`, for which 6.4 µM corresponded to half-maximal inhibition with HUVEC [2] (IC50). This lies in the single-digit micromolar range. As for `COc1ccc2sc(C(=O)Nc3ccccc3)c(OC(C)C)c2c1`, in the assay with HUVEC [1], the inhibition at 100 µM is 12%. Same read-out and setting: as for `COc1ccc2sc(C(N)=O)c(Oc3ccccc3)c2c1`, the figure is 59%; as for `CC(C)Oc1c(C(N)=O)sc2ccc(N)cc12`, 49%; as for `CC(C)Oc1c(C(N)=O)sc2ccc(Cl)cc12`, 72%. On the same count and under the same terms, with `COc1ccc2c(OC(C)C)c(C(N)=O)sc2c1` the figure was 24%; with `COc1ccc2sc(C(N)=O)c(OCc3ccccc3)c2c1`, 57%. Turning to `CNC(=O)c1sc2ccc(OC)cc2c1OC(C)C`, it took 15 µM to reach half-maximal inhibition in the assay on HUVEC [2] (IC50).
